Results published in ChEMBL document CHEMBL5260799, “Pterocarpan scaffold: A natural lead molecule with diverse pharmacological properties” (Eur J Med Chem, 2017).
In brackets after ≈: the same amount, converted by molar mass.

Experiments:
[1] = Inhibition of melanin in human melanocyte; assay type: functional, cell-based
BMDC = assay: Anti-inflammatory activity against LPS-induced C57BL/6 mouse BMDC cells assessed as inhibition of IL-12 production at 25 uM by ELISA method; assay type: functional; design: scale not given: the % may be the effect or the level left
MCF7 [2] = assay: Antiproliferative activity against human MCF7 cells assessed as inhibition of cell proliferation incubated for 72 hrs by MTT assay; assay type: functional, cell-based; conditions: MCF7, 72 h
Jurkat = assay: Antiproliferative activity against human Jurkat cells assessed as reduction in cell proliferation measured after 24 hrs by MTT assay; assay type: functional, cell-based
HL-60 [3] = assay: Antiproliferative activity against human HL-60 cells assessed as reduction in cell proliferation measured after 36 hrs by MTT assay; assay type: functional, cell-based; conditions: HL-60, 36 h
MCF7 [4] = assay: Antiproliferative activity against human MCF7 cells assessed as growth inhibition measured after 48 hrs by CellTiter-Blue assay; assay type: functional, cell-based; conditions: MCF7, 48 h
HL-60 [5] = assay: Antiproliferative activity against human HL-60 cells assessed as reduction in cell viability at 2.5 ug/ml by tryphan blue staining assay; assay type: functional; conditions: dose 2.5 µg/ml
MOLT-4 = assay: Antiproliferative activity against human MOLT-4 cells assessed as reduction in cell proliferation measured after 24 hrs by MTT assay; assay type: functional, cell-based; conditions: MOLT-4, 24 h
[6] = Antiproliferative activity against human PBMC cells assessed as reduction in cell viability at 10 microg/ml measured after 72 hrs by MTT assay; assay type: toxicity, cell-based; conditions: at 10 µg/mL
K562 [7] = assay: Antiproliferative activity against human K562 cells assessed as reduction in cell proliferation measured after 36 hrs by MTT assay; assay type: functional, cell-based; conditions: K562, 36 h
HL-60 [8] = assay: Antiproliferative activity against human HL-60 cells assessed as reduction in cell viability at 1.25 ug/ml by tryphan blue staining assay; assay type: functional; conditions: dose 1.25 µg/ml
HL-60 [9] = assay: Antiproliferative activity against human HL-60 cells assessed as reduction in cell viability at 12.5 ug/ml by tryphan blue staining assay; assay type: functional; conditions: dose 12.5 µg/ml
RAW264.7 = assay: Antiinflammatory activity in mouse RAW264.7 cells assessed as inhibition of LPS-induced NO production at 50 uM measured after 24 hrs by Griess method; assay type: functional, cell-based; conditions: RAW264.7, 24 h
Staphylococcus aureus [10] = assay: Antibacterial activity against methicillin-resistant Staphylococcus aureus assessed as bacterial growth inhibition; assay type: functional, organism-based
[11] = Cytotoxicity against mouse RAW264.7 cells assessed as increase in NO production measured after 48 hrs by MTT assay; assay type: toxicity, cell-based
Staphylococcus aureus [12] = assay: Antibacterial activity against Staphylococcus aureus ATCC 25923 assessed as bacterial growth inhibition by broth dilution method; assay type: functional, organism-based
Staphylococcus aureus [13] = assay: Antibacterial activity against methicillin-resistant Staphylococcus aureus ATCC 25923 assessed as bacterial growth inhibition by broth dilution method; assay type: functional, organism-based
A549 = assay: Cytotoxicity against human A549 cells assessed as reduction in cell viability by SRB assay; assay type: functional, cell-based
Mus musculus = species on record: Mus musculus; assay: Reduction in hepatic steatosis in HFD-induced C57BL/6J mouse model assessed as reduction in serum LDL level […]; assay type: functional, organism-based
[14] = Cytotoxicity against mouse N9 cells assessed as reduction in cell viability incubated for 48 hrs by MTT assay; assay type: toxicity, cell-based
[15] = molecular target: Prostaglandin G/H synthase 1 (Homo sapiens, UniProt P23219); assay: Inhibition of COX-1 (unknown origin)
[16] = Antiinflammatory activity against mouse primary bone marrow derived macrophages assessed as inhibition of COX-2 at 100 ug/ml; assay type: functional, BMDM; design: scale not given: the % may be the effect or the level left; conditions: dose 100 µg/ml
Staphylococcus aureus [17] = assay: Antibacterial activity against methicillin-resitant Staphylococcus aureus N1 assessed as reduction in bacterial growth by microbroth dilution method; assay type: functional
[18] = system: Mycobacterium tuberculosis; assay: Antimycobacterial activity against Mycobacterium tuberculosis H37Rv assessed as inhibition of bacterial growth by Microplate alamar blue assay; assay type: functional, organism-based
Plasmodium falciparum = assay: Antiplasmodial activity against Plasmodium falciparum K1 assessed as reduction in parasite growth by fluorescence based assay; assay type: functional, organism-based
A2780 = assay: Antiproliferative activity against human A2780 cells assessed as reduction in cell viability incubated for 96 hrs by MTT assay; assay type: functional, cell-based; conditions: A2780, 96 h
K562 [19] = assay: Cytotoxicity activity against human K562 cells assessed as reduction in cell viability […] measured after 72 hrs by MTT assay; assay type: functional, cell-based; conditions: K562, 72 h
[20] = Cytotoxicity activity against human Lucena 1 cells assessed as reduction in cell viability […] measured after 72 hrs by MTT assay; assay type: functional, cell-based; conditions: Lucena 1, 72 h
J774.A1 [21] = assay: Anti-inflammatory activity against mouse J774.A 1 macrophage assessed as reduction in LPS-induced IL-6 expression by RT-PCR analysis; assay type: functional; design: scale not given: the % may be the effect or the level left
J774.A1 [22] = assay: Anti-inflammatory activity against mouse J774.A 1 macrophage assessed as reduction in LPS-induced TNFalpha expression by RT-PCR analysis; assay type: functional; design: scale not given: the % may be the effect or the level left
HeLa = assay: Cytotoxicity against human HeLa cells assessed as reduction in cell viability by MTT assay; assay type: functional, cell-based
MDA-MB-231 = assay: Cytotoxicity against human MDA-MB-231 assessed as reduction in cell viability by MTT assay; assay type: functional, cell-based

Chain of Prostaglandin G/H synthase 1 (P23219 whole entry): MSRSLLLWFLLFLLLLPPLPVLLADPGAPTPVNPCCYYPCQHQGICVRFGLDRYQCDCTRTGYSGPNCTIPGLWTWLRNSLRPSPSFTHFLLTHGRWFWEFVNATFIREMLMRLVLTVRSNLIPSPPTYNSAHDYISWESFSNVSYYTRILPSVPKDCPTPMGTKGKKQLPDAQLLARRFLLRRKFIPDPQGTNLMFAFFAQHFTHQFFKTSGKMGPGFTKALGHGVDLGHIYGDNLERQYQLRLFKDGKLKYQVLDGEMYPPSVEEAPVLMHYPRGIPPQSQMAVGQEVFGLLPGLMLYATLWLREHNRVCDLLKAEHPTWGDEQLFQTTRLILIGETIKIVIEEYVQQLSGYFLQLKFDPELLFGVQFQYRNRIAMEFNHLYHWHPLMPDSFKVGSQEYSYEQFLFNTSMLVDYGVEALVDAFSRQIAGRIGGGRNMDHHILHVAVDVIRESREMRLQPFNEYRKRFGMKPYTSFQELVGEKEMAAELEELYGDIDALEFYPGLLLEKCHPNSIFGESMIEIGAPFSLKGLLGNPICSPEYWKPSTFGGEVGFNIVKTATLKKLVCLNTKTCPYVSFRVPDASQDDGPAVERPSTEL

Question: For C=C/C(C)=C/c1c(O)ccc2c1OC[C@H]1c3cc(C)c(O)c(CC=C(C)C)c3O[C@@H]21, which IC50 [1] is on record?
Answer: The IC50 was 1520 nM.

Question: Which Activity (BMDC) does the source give for COc1ccc2c(c1OC)OC1c3ccc(O[C@H]4O[C@H](CO)[C@@H](O)[C@H](O)[C@H]4O)cc3OCC21 (stereo partly specified) here?
Answer: Its Activity is 10%.

Question: For COc1cc2c(cc1O)C1COC3C(=O)c4ccccc4C(=O)C3C1O2 (stereo unspecified), which IC50 (MCF7 [2]) is on record?
Answer: Its IC50 is 7.8 µM.

Question: For COc1cc2c(cc1O)OC1C2COC2C(=O)c3ccccc3C(=O)C21 (stereo unspecified), which IC50 (MCF7 [2]) is on record?
Answer: Its IC50 is 5.3 µM.

Question: With COc1ccc2c(c1)O[C@@H]1c3cc(OC)c(OC)cc3OC[C@H]21 as the compound, how does the IC50 (Jurkat) read?
Answer: Its IC50 is over 10 µg/mL.

Question: What about the IC50 (HL-60 [3]) of the same compound?
Answer: Its IC50 is 2.5 µg/mL (≈ 7.95 µM).

Question: And the IC50 (MCF7 [4])?
Answer: Its IC50 is 8 µM.

Question: What about the Activity (HL-60 [5]) of the same compound?
Answer: The Activity was 42.6%.

Question: What about the IC50 (MOLT-4) of the same compound?
Answer: Its IC50 is 45.9 µg/mL (≈ 146 µM).

Question: And the inhibition at 72 h, 10 microg/ml [6]?
Answer: The inhibition at 72 h, 10 microg/ml was 19%.

Question: What about the IC50 (K562 [7]) of the same compound?
Answer: Its IC50 is 2.8 µg/mL (≈ 8.91 µM).

Question: What about the Activity (HL-60 [8]) of the same compound?
Answer: Its Activity is 34.4%.

Question: With COc1ccc2c(c1)O[C@@H]1c3ccc(OC)cc3OC[C@H]21 as the compound, how does the Activity (HL-60 [9]) read?
Answer: Its Activity is 52.5%.

Question: For CC/C=C/OC[C@H]1O[C@H](Oc2ccc3c(c2)OC[C@H]2c4ccc(OC)c(OC)c4O[C@@H]32)[C@H](O)[C@@H](O)[C@@H]1O, which EC50 (RAW264.7) is on record?
Answer: Its EC50 is 19.2 µM.

Question: Which IC50 (Staphylococcus aureus [10]) does the source give for COc1cc2c(cc1CC=C(C)C)[C@@H]1Oc3cc(O)ccc3[C@@H]1CO2 here?
Answer: Its IC50 is 6.25 µg/mL (≈ 18.5 µM).

Question: Which IC50 at 48 h [11] does the source give for CC(=O)/C(C)=C/c1c(O)ccc2c1O[C@H]1c3ccc(O)cc3OC[C@@H]21 here?
Answer: Its IC50 at 48 h is 19 µM.

Question: With COc1cc2c(cc1OCc1ccccc1)OC1C2COC2C(=O)c3ccccc3C(=O)C21 (stereo unspecified) as the compound, how does the IC50 (MCF7 [2]) read?
Answer: The IC50 was 27.7 µM.

Question: For COc1c(O)cc2c(c1CC=C(C)C)O[C@H]1c3ccc(O)cc3OC[C@@H]21, which IC50 [1] is on record?
Answer: The IC50 was 1440 nM.

Question: For COc1ccc2c(c1CC=C(C)C)O[C@H]1c3ccc(C)cc3OC[C@@]21O, which IC50 (Staphylococcus aureus [12]) is on record?
Answer: Its IC50 is 64 µg/mL (≈ 182 µM).

Question: And the IC50 (Staphylococcus aureus [13])?
Answer: Its IC50 is 64 µg/mL (≈ 182 µM).

Question: Which IC50 (A549) does the source give for CC1(C)Oc2cc3c(cc2CC1O)[C@@H]1Oc2cc(O)ccc2[C@@H]1CO3 (stereo partly specified) [RAUTANDIOL A] here?
Answer: The IC50 was over 5 µg/mL.

Question: With CC(C)(O)c1cc2cc3c(cc2o1)OC[C@@]1(O)c2ccc(O)cc2O[C@@H]31 as the compound, how does the IC50 (Mus musculus) read?
Answer: Its IC50 is 19.8 µM.

Question: For COc1ccc2c(c1OC)O[C@H]1c3ccc(O[C@H]4O[C@H](CO)[C@@H](O)[C@H](O)[C@H]4O)cc3OC[C@@H]21, which EC50 (RAW264.7) is on record?
Answer: The EC50 was 14.7 µM.

Question: Which IC50 at 48 h [14] does the source give for C=C(C)/C(C)=C/c1c(O)ccc2c1O[C@H]1c3ccc(O)cc3OC[C@@H]21 here?
Answer: Its IC50 at 48 h is 9.4 µM.

Question: And the IC50 at 48 h [11]?
Answer: The IC50 at 48 h was 23 µM.

Question: Which IC50 [15] does the source give for COc1ccc2c(c1O)OC1c3ccc(O)c(OC)c3OCC21 (stereo unspecified) here?
Answer: The IC50 was 30.5 µM.

Question: And the Activity [16]?
Answer: The Activity was 52.5%.

Question: For CC(C)=CCc1c(O)c(C)cc2c1O[C@H]1c3cc4c(cc3OC[C@@H]21)OC(C)(C)C=C4 [LESPECYRTIN E5], which IC50 [1] is on record?
Answer: The IC50 was 1500 nM.

Question: Which Activity (HL-60 [9]) does the source give for COc1ccc2c(c1)O[C@@H]1c3ccc(O)c(O)c3OC[C@H]21 here?
Answer: Its Activity is 72.1%.

Question: With COc1ccc2c(c1CC=C(C)C)O[C@H]1c3cc(CC=C(C)C)c(O)cc3OC[C@@]21O [ERYSTAGALLIN A] as the compound, how does the MIC (Staphylococcus aureus [17]) read?
Answer: The MIC was 0.78 µg/mL (≈ 1.85 µM).

Question: And the IC50 [18]?
Answer: Its IC50 is 12.5 µg/mL (≈ 29.6 µM).

Question: And the IC50 (Plasmodium falciparum)?
Answer: Its IC50 is 3.8 µg/mL (≈ 8.99 µM).

Question: With O=C1c2ccccc2C(=O)C2C1OCC1c3cc(O)c(O)cc3OC12 (stereo unspecified) as the compound, how does the IC50 (MCF7 [2]) read?
Answer: Its IC50 is 115 µM.

Question: For C=C(CO)[C@H]1Cc2cc3c(cc2O1)OC[C@H]1c2cc4c(cc2O[C@@H]31)OCO4, which IC50 (A2780) is on record?
Answer: The IC50 was over 54.4 µM.

Question: Which IC50 (K562 [19]) does the source give for COc1cc2c(cc1O)O[C@@H]1C3=C(OC[C@H]21)C(=O)c1ccccc1C3=O here?
Answer: The IC50 was 4.5 µM.

Question: And the IC50 [20]?
Answer: The IC50 was 4.49 µM.

Question: Which IC50 (MCF7 [2]) does the source give for O=C1c2ccccc2C(=O)C2C1OCC1c3cc(OCc4ccccc4)c(OCc4ccccc4)cc3OC12 (stereo unspecified) here?
Answer: Its IC50 is over 100 µM.

Question: Which Activity (J774.A1 [21]) does the source give for OC[C@H]1O[C@H](Oc2ccc3c(c2)OCC2c4cc5c(cc4OC32)OCO5)[C@H](O)[C@@H](O)[C@@H]1O (stereo partly specified) here?
Answer: The Activity was 25%.

Question: What about the Activity (J774.A1 [22]) of the same compound?
Answer: The Activity was 25%.

Question: For O=c1cccc2n1C[C@@H]1C[C@H]2CN(Cc2c(O)ccc3c2OC[C@H]2c4cc5c(cc4O[C@@H]32)OCO5)C1, which IC50 (HeLa) is on record?
Answer: The IC50 was 24.3 µM.

Question: And the IC50 (MDA-MB-231)?
Answer: Its IC50 is 48.9 µM.
